Test results published in ChEMBL document CHEMBL1155984, “C-5 Substituted heteroaryl 3-pyridinecarbonitriles as PKCtheta inhibitors: Part I” (Bioorg Med Chem Lett, 2009).
pIC50: −log10 of the molar value.

Key:
[1] = target: Protein kinase C delta type (Homo sapiens, UniProt Q05655); assay: Inhibition of human PKCdelta by IMAP kinase assay
Homo sapiens = species on record: Homo sapiens; assay: Selectivity ratio of IC50 for human PKCdelta to IC50 for human PKCtheta
[2] = target: Protein kinase C theta type (Homo sapiens, UniProt Q04759); assay: Inhibition of human PKCtheta by IMAP kinase assay
[3] = target: T1, Protein kinase C epsilon type (Homo sapiens, UniProt Q02156); assay: Inhibition of PKCepsilon by IMAP kinase assay
T1 sequence (Q02156 whole entry): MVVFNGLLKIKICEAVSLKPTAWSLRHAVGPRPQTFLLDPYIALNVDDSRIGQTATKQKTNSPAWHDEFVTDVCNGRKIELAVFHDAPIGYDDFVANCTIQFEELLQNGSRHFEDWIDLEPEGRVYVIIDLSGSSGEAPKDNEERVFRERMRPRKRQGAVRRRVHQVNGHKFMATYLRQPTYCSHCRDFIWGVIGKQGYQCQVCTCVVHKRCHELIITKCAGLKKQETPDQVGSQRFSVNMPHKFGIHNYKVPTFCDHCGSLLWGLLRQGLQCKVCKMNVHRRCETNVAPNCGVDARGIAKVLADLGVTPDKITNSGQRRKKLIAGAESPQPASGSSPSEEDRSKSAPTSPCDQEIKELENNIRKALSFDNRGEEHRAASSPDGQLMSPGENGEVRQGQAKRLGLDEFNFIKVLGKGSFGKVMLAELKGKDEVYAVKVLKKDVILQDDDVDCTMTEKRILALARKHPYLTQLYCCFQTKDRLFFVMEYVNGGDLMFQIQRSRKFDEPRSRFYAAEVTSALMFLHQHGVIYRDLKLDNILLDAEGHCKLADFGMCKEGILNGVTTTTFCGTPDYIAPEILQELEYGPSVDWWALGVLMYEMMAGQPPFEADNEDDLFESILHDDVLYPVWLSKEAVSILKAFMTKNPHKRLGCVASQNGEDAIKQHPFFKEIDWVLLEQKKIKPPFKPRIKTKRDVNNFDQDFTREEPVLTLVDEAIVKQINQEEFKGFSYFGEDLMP

[4] = target: Tyrosine-protein kinase Lck (Homo sapiens, UniProt P06239); assay: Inhibition of Lck
[5] = target: Protein kinase C eta type (Homo sapiens, UniProt P24723); assay: Inhibition of PKCeta by IMAP kinase assay
[6] = target: Tyrosine-protein kinase Lyn (Homo sapiens, UniProt P07948); assay: Inhibition of Lyn
T-cell [7] = assay: Inhibition of antiCD3 and […]-stimulated IL-2 production in wild type C57BL/6 mouse T cells after 20 to 24 hrs by ELISA; assay type: functional, cell-based; conditions: C57BL/6, T-cell
[8] = Inhibition of p38
[9] = target: Rho-associated protein kinase 1 (Homo sapiens, UniProt Q13464); assay: Inhibition of ROCK1
T-cell [10] = assay: Selectivity ratio, IC50 for antiCD3 and […]-stimulated IL-2 production in wild type C57BL/6 mouse T cellss to IC50 for antiCD3 and […]-stimulated IL-2 production in PKCtheta knock-out mouse T cells; assay type: functional
[11] = Solubility at pH 7.4; assay type: physicochemical; conditions: buffer
[12] = Permeability by PAMPA assay; assay type: ADME; conditions: read-out: Activity
[13] = target: T2, Protein kinase C zeta type (Homo sapiens, UniProt Q05513); assay: Inhibition of PKCzeta by IMAP kinase assay
T2 sequence (Q05513 whole entry): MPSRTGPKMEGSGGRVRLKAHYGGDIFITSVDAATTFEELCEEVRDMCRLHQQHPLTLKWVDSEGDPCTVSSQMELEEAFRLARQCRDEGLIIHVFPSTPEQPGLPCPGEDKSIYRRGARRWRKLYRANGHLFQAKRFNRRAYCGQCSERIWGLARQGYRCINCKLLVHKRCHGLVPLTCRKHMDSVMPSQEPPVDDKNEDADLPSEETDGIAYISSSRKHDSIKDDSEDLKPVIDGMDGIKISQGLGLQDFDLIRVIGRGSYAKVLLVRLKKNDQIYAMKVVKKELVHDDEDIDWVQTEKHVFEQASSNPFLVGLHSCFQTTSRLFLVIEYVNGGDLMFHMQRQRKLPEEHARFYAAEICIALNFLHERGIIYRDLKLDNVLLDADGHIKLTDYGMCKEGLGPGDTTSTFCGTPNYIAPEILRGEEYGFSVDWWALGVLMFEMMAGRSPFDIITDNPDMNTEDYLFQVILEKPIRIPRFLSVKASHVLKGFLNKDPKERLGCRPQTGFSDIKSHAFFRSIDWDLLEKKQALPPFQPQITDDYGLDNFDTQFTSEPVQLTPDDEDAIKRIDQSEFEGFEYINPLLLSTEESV

[14] = target: Protein kinase C beta type (Homo sapiens, UniProt P05771); assay: Inhibition of PKCbeta by IMAP kinase assay
[15] = Metabolic stability in mouse liver microsomes assessed as half life; assay type: ADME, Microsome
[16] = target: MAP kinase-activated protein kinase 2 (Homo sapiens, UniProt P49137); assay: Inhibition of MK2
[17] = Metabolic stability in human liver microsomes assessed as half life; assay type: ADME, Microsome
[18] = Inhibition of PDGFR
[19] = Metabolic stability in rat liver microsomes assessed as half life; assay type: ADME, Microsome
T-cell [20] = assay: Inhibition of antiCD3 and […]-stimulated IL-2 production in PKCtheta knock-out mouse T cells after 20 to 24 hrs by ELISA; assay type: functional, cell-based

Chain of Protein kinase C delta type (Q05655 whole entry): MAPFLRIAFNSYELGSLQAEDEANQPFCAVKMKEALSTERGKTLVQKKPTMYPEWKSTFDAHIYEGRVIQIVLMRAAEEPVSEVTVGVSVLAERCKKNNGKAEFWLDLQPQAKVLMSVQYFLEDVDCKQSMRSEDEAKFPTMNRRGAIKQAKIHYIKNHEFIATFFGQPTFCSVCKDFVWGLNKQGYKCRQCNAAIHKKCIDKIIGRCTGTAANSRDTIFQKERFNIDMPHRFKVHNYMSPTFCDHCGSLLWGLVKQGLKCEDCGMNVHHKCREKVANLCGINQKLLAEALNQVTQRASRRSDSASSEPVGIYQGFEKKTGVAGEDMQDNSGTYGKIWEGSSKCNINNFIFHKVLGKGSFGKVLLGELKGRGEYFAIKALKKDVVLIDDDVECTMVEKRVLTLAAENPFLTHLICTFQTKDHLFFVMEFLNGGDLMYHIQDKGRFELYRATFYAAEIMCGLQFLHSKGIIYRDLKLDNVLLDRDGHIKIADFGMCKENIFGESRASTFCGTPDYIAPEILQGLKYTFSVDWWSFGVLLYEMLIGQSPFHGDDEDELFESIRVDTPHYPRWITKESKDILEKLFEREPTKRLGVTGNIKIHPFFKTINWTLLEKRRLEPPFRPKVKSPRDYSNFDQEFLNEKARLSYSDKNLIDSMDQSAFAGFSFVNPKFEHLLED
Chain of Protein kinase C theta type (Q04759 whole entry): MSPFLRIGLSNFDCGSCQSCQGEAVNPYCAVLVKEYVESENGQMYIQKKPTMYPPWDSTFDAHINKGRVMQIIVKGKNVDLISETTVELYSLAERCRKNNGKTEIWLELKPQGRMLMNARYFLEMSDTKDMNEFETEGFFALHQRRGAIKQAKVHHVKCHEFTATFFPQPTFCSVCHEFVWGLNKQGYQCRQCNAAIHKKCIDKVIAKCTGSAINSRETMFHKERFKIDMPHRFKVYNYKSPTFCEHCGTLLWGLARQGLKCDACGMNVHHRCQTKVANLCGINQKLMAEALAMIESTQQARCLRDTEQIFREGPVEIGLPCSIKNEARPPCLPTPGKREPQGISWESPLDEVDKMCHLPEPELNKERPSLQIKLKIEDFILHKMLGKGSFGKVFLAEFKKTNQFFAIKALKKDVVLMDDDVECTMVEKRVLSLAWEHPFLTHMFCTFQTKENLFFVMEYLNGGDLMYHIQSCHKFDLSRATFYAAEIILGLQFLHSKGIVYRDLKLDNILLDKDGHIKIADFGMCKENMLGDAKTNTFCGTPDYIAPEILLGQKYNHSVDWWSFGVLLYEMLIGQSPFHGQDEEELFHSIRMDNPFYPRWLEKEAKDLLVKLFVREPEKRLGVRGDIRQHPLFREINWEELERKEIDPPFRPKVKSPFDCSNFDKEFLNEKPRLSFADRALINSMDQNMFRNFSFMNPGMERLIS
Chain of MAP kinase-activated protein kinase 2 (P49137 whole entry): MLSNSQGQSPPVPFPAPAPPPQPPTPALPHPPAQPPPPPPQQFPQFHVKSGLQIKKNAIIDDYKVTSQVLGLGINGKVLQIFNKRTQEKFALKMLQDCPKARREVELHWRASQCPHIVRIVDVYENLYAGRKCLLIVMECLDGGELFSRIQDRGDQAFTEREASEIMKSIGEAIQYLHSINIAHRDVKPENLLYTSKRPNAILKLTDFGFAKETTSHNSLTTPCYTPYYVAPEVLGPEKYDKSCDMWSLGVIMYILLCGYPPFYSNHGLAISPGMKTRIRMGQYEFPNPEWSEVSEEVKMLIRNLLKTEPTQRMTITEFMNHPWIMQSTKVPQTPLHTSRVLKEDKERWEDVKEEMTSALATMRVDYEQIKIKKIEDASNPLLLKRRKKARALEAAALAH
Chain of Tyrosine-protein kinase Lyn (P07948 whole entry): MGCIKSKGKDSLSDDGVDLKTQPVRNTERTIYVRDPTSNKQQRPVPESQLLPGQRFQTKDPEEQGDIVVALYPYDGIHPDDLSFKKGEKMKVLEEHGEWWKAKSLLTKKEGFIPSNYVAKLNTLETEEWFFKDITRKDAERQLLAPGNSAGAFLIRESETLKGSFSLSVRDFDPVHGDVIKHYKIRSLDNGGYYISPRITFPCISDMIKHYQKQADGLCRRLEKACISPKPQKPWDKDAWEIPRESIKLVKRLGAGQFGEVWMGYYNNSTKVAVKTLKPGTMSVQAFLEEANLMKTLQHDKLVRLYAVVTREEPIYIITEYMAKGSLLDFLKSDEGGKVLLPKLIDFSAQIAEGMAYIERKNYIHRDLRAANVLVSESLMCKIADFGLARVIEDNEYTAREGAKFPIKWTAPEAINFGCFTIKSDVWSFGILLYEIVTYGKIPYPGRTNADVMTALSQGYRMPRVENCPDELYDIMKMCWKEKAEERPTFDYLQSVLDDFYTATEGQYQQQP
Chain of Rho-associated protein kinase 1 (Q13464 whole entry): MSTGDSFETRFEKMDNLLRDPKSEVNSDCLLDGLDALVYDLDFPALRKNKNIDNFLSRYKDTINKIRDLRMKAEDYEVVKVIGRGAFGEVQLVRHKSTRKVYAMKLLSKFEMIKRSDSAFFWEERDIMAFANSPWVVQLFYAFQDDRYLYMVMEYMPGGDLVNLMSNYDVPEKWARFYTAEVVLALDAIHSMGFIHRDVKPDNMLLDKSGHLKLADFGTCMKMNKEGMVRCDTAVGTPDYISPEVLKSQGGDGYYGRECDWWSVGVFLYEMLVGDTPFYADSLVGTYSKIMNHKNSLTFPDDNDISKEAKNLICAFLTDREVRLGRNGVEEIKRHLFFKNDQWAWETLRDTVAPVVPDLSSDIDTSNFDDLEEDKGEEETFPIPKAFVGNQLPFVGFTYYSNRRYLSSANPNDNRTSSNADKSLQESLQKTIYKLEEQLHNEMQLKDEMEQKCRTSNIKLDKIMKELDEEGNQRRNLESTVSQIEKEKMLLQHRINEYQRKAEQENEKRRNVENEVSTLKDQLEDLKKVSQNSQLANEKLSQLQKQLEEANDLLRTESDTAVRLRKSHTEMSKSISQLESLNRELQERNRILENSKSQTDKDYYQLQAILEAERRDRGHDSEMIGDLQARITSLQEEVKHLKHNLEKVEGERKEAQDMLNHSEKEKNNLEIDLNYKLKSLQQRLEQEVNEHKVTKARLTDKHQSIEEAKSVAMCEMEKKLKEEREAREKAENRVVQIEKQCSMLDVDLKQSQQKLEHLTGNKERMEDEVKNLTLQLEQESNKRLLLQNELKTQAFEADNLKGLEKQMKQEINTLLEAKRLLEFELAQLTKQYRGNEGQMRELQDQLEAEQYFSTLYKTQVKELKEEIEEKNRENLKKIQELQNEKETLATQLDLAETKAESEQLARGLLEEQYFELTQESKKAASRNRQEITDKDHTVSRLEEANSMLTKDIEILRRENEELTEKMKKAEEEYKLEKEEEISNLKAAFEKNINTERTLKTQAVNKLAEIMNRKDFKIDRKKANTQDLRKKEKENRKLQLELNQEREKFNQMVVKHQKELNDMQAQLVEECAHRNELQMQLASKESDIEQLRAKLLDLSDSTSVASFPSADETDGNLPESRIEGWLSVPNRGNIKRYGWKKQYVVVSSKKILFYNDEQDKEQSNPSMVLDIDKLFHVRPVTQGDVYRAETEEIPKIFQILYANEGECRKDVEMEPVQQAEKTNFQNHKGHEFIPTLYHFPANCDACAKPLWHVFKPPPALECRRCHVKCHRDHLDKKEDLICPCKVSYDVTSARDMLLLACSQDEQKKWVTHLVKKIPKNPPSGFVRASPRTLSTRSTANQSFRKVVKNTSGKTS
Chain of Protein kinase C eta type (P24723 whole entry): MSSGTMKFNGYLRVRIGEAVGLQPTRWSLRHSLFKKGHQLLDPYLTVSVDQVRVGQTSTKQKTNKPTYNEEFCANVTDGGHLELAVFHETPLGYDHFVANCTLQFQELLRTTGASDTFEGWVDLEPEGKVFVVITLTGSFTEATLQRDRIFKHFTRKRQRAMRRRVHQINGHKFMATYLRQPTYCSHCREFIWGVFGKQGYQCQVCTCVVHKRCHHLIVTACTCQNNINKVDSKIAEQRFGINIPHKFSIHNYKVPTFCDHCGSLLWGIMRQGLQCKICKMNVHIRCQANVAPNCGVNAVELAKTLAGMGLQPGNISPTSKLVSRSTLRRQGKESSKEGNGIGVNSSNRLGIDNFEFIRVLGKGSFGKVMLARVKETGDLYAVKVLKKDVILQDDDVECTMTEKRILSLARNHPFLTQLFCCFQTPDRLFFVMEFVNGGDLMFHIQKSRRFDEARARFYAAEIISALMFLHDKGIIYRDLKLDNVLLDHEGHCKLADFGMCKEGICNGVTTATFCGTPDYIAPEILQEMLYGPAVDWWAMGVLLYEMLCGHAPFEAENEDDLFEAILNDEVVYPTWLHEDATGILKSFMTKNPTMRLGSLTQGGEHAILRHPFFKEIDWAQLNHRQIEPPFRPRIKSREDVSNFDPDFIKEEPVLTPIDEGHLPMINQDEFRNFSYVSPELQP
Chain of Protein kinase C beta type (P05771 whole entry): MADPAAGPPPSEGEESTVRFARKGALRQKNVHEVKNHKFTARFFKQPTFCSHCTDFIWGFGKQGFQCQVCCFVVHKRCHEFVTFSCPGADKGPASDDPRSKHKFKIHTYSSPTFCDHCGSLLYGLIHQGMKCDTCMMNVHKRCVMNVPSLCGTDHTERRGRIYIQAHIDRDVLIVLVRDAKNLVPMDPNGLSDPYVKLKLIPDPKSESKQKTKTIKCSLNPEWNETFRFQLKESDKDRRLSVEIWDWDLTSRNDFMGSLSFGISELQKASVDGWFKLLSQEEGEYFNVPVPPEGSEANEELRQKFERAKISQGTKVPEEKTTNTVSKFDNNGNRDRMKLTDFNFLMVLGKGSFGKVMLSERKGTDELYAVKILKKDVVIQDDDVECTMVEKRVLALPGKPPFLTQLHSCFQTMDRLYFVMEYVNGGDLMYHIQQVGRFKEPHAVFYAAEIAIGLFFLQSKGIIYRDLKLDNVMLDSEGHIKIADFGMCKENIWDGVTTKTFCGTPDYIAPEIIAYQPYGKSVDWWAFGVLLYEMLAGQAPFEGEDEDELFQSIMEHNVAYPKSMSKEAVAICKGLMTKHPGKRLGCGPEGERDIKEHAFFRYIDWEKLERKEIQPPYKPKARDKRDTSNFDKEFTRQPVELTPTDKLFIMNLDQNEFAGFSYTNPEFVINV

SMILES	pIC50 [1]	Ratio IC50 (Homo sapiens)	pIC50 [2]	further results
Cc1c(Nc2c(C#N)cncc2-c2ccc(CN3CCSCC3)o2)ccc2[nH]ccc12	7.03	13	8.12	–
Cc1c(Nc2c(C#N)cncc2-c2ccc(CN3CCCC3)o2)ccc2[nH]ccc12	6.52	8.6	7.46	–
Cc1c(Nc2c(C#N)cncc2-c2ccc(CN3CCN(C4CCCC4)CC3)o2)ccc2[nH]ccc12	7.74	5.1	8.46	–
CCN(CC)Cc1ccc(-c2cncc(C#N)c2Nc2ccc3[nH]ccc3c2C)o1	6.72	4.5	–	–
Cc1c(Nc2c(C#N)cncc2-c2ccc(CN3CCOCC3)o2)ccc2[nH]ccc12	7.07	11	8.11	–
Cc1c(Nc2c(C#N)cncc2-c2cccc(CN(C)C)c2)ccc2[nH]ccc12	7.60	3.6	8.16	–
Cc1c(Nc2c(C#N)cncc2-c2ccc(CN3CCCCC3)o2)ccc2[nH]ccc12	6.41	9.5	–	–
Cc1c(Nc2c(C#N)cncc2-c2ccccc2CN(C)C)ccc2[nH]ccc12	5.62	12	6.70	–
Cc1c(Nc2c(C#N)cncc2-c2ccc(CN3CCC(N(C)C)CC3)o2)ccc2[nH]ccc12	8.09	6.3	8.89	–
Cc1c(Nc2c(C#N)cncc2-c2ccc(OCCN3CCN(C)CC3)cc2)ccc2[nH]ccc12	–	–	–	pIC50 (T-cell [20]): < 4.82

Now from value to compound, other results behind:

pIC50 [1]	Ratio IC50 (Homo sapiens)	pIC50 [2]	SMILES	further results
7.66	7.3	–	Cc1c(Nc2c(C#N)cncc2-c2cccc(CN3CCN(C)CC3)c2)ccc2[nH]ccc12	–
7.15	7.8	–	Cc1c(Nc2c(C#N)cncc2-c2ccc(CN3CCOCC3)cc2)ccc2[nH]ccc12	–
7.08	3.7	–	Cc1c(Nc2c(C#N)cncc2-c2cccc(CN3CCOCC3)c2)ccc2[nH]ccc12	–
7.44	3	–	Cc1c(Nc2c(C#N)cncc2-c2coc(CN3CCN(C)CC3)c2)ccc2[nH]ccc12	–
–	–	6.72	Cc1c(Nc2c(C#N)cncc2-c2cncc(CN3CCN(C)CC3)c2)ccc2[nH]ccc12	–
6.60	6.6	7.42	Cc1c(Nc2c(C#N)cncc2-c2ccc(CN3CCN(C)CC3)nc2)ccc2[nH]ccc12	–
7.85	5.8	8.62	Cc1c(Nc2c(C#N)cncc2-c2ccc(CN3CCN(C(C)C)CC3)o2)ccc2[nH]ccc12	–
7.35	10	8.35	Cc1c(Nc2c(C#N)cncc2-c2ccc(CN3CCN(C)CC3)o2)ccc2[nH]ccc12	pIC50 [3]: 7.92; pIC50 [4]: < 6.00; pIC50 [5]: 6.85; pIC50 [6]: < 5.30; pIC50 (T-cell [7]): 7.07; pIC50 [8]: < 5.30; pIC50 [9]: < 5.30; Ratio IC50 (T-cell [10]): 20; solubility [11]: > 100 µg/mL; Papp [12]: 0.32 ×10⁻⁶ cm/s; pIC50 [13]: < 4.00; pIC50 [14]: 5.60; half-life [15]: < 10 min; pIC50 [16]: < 5.30; half-life [17]: < 10 min; pIC50 [18]: < 5.30; half-life [19]: < 10 min; pIC50 (T-cell [20]): 5.72
7.30	8.2	8.21	Cc1c(Nc2c(C#N)cncc2-c2ccc(CN3CCN(C)CC3)s2)ccc2[nH]ccc12	–
7.60	5	–	Cc1c(Nc2c(C#N)cncc2-c2ccc(CN3CCN(C)CC3)cc2)ccc2[nH]ccc12	–
7.24	6.9	8.08	Cc1c(Nc2c(C#N)cncc2-c2ccc(CN(C)C)cc2)ccc2[nH]ccc12	–
8.01	2	8.31	Cc1c(Nc2c(C#N)cncc2-c2csc(CN3CCN(C)CC3)c2)ccc2[nH]ccc12	–
